Data from patent US20080312227A1, “Substituted Pyrido(2,3-D) Pyrimidine Derivatives Useful as Medicines for the Treatment of Autoimmune Disorders” (4 AZA BIOSCIENCE NV, priority 2005, published 2008).
Where a name gives a salt, the structure may show the parent alone. Read-outs that look alike come from different tables or passages of the source.

Tests used:
[1] = tested on: mixed lymphocyte reaction (PBMC with irradiated allogeneic PBMC or RPMI1788 stimulator cells); assay: Mixed lymphocyte reaction (MLR) assay; type: cell-based, human; settings: read-out: MLR (IC50, lowest concentration giving 50% suppression of the MLR)
Description: Pyrido[2,3-d]pyrimidine derivatives were first dissolved (10 mM) in dimethyl-sulfoxide (hereinafter referred as DMSO) and further diluted in culture medium before use for the following in vitro experiments. The commercially available culture medium consisted of RPMI-1640+10% foetal calf serum (FCS). Some pyrido[2,3-d]pyrimidine derivatives described herein were tested in the following mixed lymphocyte reaction (MLR) assay.
Peripheral blood mononuclear cells (hereinafter referred as PBMC) were isolated from heparinized peripheral blood by density gradient centrifugation over Lymphoprep (Nycomed, Maorstua, Norway). Allogeneic PBMC or Eppstein-Barr Virus-transformed human B cells [commercially available under the trade name RPMI1788 (ATCC name CCL156)] which strongly express B7-1 and B7-2 antigens were used as stimulator cells after irradiation with 30 Gy. MLR was performed in triplicate wells. After 5 days incubation at 37° C., 1 μCi [^3H]-thymidine was added to each cup. After a further 16 hours incubation, cells were harvested and counted in a β-counter. Inhibition of proliferation by a compound described in some of the present examples was counted while using the formula: […]
wherein cpm is the thymidine count per minute. The MLR assay is regarded by those skilled in the art as an in vitro analogue of the transplant rejection since it is based on the recognition of allogeneic major histocompatibility antigens on the stimulator leukocytes, by responding lymphocytes.

[2] = tested on: human TNF-α production by PBMC; assay: TNF-α assay (LPS-stimulated PBMC, sandwich ELISA); type: cell-based; settings: PBMC stimulated with LPS 1 μg/ml, 72 hours, read-out: TNF α (IC50 in the TNFα assay)
Description: (§1) Peripheral blood mononuclear cells (herein referred as PBMC), in response to stimulation by lipopolysaccharide (hereinafter LPS), a gram-negative bacterial endotoxin, produce various […], in particular human TNF-α. Inhibition of the activation of PBMC can therefore be measured by the level of suppression of the production of TNF-α by PBMC in response to stimulation by LPS.
Such inhibition measurement was performed as follows: PBMC were isolated from heparinized peripheral blood by density gradient centrifugation over Lymphoprep (commercially available from Nycomed, Norway). LPS was then added to the PMBC suspension in complete medium (10^6 cells/ml) at a final concentration of 1 μg/ml. The pyrido[3,2-d]pyrimidine derivative to be tested was added at different concentrations (0.1 μM, 1 μM and 10 μM) and the cells were incubated at 37° C. for 72 hours in 5% CO2. The supernatants were collected, then TNF-α concentrations were measured with respectively an anti-TNF-α antibody in a sandwich ELISA (Duo Set ELISA human TNFα, commercially available from R&D Systems, United Kingdom). The colorimetric reading of the ELISA was measured by a Multiskan RC plate reader (commercially available from ThermoLabsystems, Finland) at 450 nm (reference wavelength: 690 nm). Data analysis was performed with Ascent software 2.6. (also from ThermoLabsystems, Finland): a standard curve (recombinant human TNFα) was drawn and the amount (pg/ml) of each sample on the standard curve was determined.
The % suppression of human TNFα production by the pyrido[2,3-d]pyrimidine derivatives of the invention was calculated using the formula: […]

[3] = tested on: human IL-1 β production by PBMC; assay: IL-1 β assay (LPS-stimulated PBMC, sandwich ELISA); type: cell-based; settings: PBMC stimulated with LPS 1 μg/ml, 72 hours, read-out: IC50 in the IL-1 β test (50% suppression of human IL-1 β)
Description: as §1, with “(LPS),” for “(hereinafter LPS),”, “IL-1 β.” for “TNF-α.”, “IL-1 β” for “TNF-α”
Such inhibition measurement was performed as follows: PBMC were isolated from heparinized peripheral blood by density gradient centrifugation over Lymphoprep (commercially available from Nycomed, Norway). LPS was then added to the PMBC suspension in complete medium (10^6 cells/ml) at a final concentration of 1 μg/ml. […] The supernatants were collected, then IL-1 β concentrations were measured with an anti-IL-1 β antibody in a sandwich ELISA. The calorimetric reading of the ELISA was measured by a Multiskan RC plate reader (commercially available from ThermoLabsystems, Finland) at 450 nm (reference wavelength: 690 nm). […] (also from ThermoLabsystems, Finland): a standard curve (recombinant human IL-1 β) was drawn and the amount (pg/ml) of each sample on the standard curve was determined.
The % suppression of human IL-1 β by the pyrido[2,3-d]pyrimidine derivatives of this invention was calculated using the formula: […]

[4] = Homo sapiens, RPMI-1788, 5 days incubation then 16 h [3H]-thymidine
[5] = 5 days incubation then 16 h [3H]-thymidine

Row | Compound | IC50 [1, 4] [nM] | IC50 ([2]; Homo sapiens) [nM] | IC50 [1, 5] [nM] | IC50 [2] [nM] | also measured
1 | COc1ccc(-c2cnc3nc(N)nc(OC(C)C)c3c2)cc1OC [Example 2, 2-amino-4-isopropoxy-6-(3,4-dimethoxyphenyl)-pyrido[2,3-d]pyrimidine] | 900 | 90 |  |  | 
2 | COc1ccc(-c2cnc3nc(N)nc(NC(C)C)c3c2)cc1OC [Example 31, 2-amino-4-isopropylamino-6-(3,4-dimethoxyphenyl)pyrido[2,3-d]pyrimidine] | 5700 | 700 |  |  | 
3 | Cc1ccc(-c2cnc3nc(N)nc(OC(C)C)c3c2)cc1C [Example 38, 2-amino-4-isopropoxy-6-(3,4-dimethylphenyl)-pyrido[2,3-d]pyrimidine] |  | 900 |  |  | 
4 | COc1ccc(-c2cnc3nc(N)nc(N4CCN(C(=O)OCc5ccccc5)CC4)c3c2)cc1OC [Example 15, 2-amino-6-(3,4-dimethoxyphenyl)-4-[(N-benzyloxycarbonyl)-piperazin-1-yl]-pyrido[2,3-d]pyrimidine] |  |  | 800 | 900 | IC50 [3]: 7000 nM
5 | COc1ccc(-c2cnc3nc(N)nc(OC)c3c2)cc1OC [Example 35, 2-amino-4-methoxy-6-(3,4-dimethoxyphenyl)pyrido[2,3d]pyrimidine] |  |  | 6200 | 900 | 
6 | CCC(C)Oc1nc(N)nc2ncc(-c3ccc(OC)c(OC)c3)cc12 (centres unmarked) [Example 37, hydrochloride salt of 2-amino-4-(sec-butoxy)-6-(3,4-dimethoxyphenyl)-pyrido[2,3-d]pyrimidine] |  |  | 3200 | 500 | 
7 | COc1ccc(-c2cnc3nc(N)nc(N4CCN(Cc5ccccc5)CC4)c3c2)cc1OC [Example 23, 2-amino-4-(4-benzylpiperazin-1-yl)-6-(3,4-dimethoxyphenyl)-pyrido[2,3-d]pyrimidine] | 7200 | 700 |  |  | 
8 | COc1ccc(-c2cnc3nc(N)nc(N4CCNCC4)c3c2)cc1OC [Example 22, 2-amino-4-(piperazin-1-yl)-6-(3,4-dimethoxyphenyl)-pyrido[2,3-d]pyrimidine] |  | 8100 |  |  | 
9 | COc1ccc(-c2cnc3nc(N)nc(NCCc4ccccc4)c3c2)cc1OC [Example 44, 2-amino-4-(phenylethylamino)-6-(3,4-dimethoxyphenyl)pyrido[2,3-d]pyrimidine] | 4300 | 4200 |  |  | 
10 | COc1ccc(-c2cnc3nc(N)nc(N4CCOCC4)c3c2)cc1OC [Example 4, 2-amino-4-morpholino-6-(3,4-dimethoxyphenyl)-pyrido[2,3-d]pyrimidine] | 4800 | 3200 |  |  | 
11 | COc1ccc(-c2cnc3nc(N)nc(NCc4ccccc4)c3c2)cc1OC [Example 43, 2-amino-4-(benzylamino)-6-(3,4-dimethoxyphenyl)pyrido[2,3-d]pyrimidine] | 5000 |  |  |  | 
12 | Cc1ccc(NC(=O)N2CCN(c3nc(N)nc4ncc(Br)cc34)CC2)cc1 [Example 7, 2-amino-4-[N-4-methylphenylcarbamoyl-piperazin-1-yl]-6-bromo-pyrido[2,3-d]pyrimidine] |  |  | 700 |  | 
13 | COc1ccc(-c2cnc3nc(N)nc(N4CCN(C(=O)COc5ccccc5)CC4)c3c2)cc1OC [Example 10, 2-amino-4-(N-phenoxyacetyl-N-piperazin-1-yl)-6-(3,4-dimethoxyphenyl)pyrido[2,3d]pyrimidine] |  |  | 300 | 1700 | 
14 | COc1ccc(-c2cnc3nc(N)nc(N4CCN(C(=O)Nc5ccc(C)cc5)CC4)c3c2)cc1OC [Example 12, 2-amino-4-(N-4-methylphenylcarbamoyl-piperazin-1-yl]-6-(3,4-dimethoxyphenyl)pyrido[2,3-d]pyrimidine] |  |  | 400 | 4900 | 
15 | COc1ccc(-c2cnc3nc(N)nc(OC4CCOCC4)c3c2)cc1OC [Example 33, 2-amino-4-(tetrahydro-2H-pyran-4-yloxy)-6-(3,4-dimethoxyphenyl)pyrido[2,3-d]pyrimidine] | 2400 | 600 |  |  | 
16 | 2-amino-6-(3,4-dimethoxyphenyl)-4-(4-N-methyl piperidinoxy)pyrido[2,3-d]pyrimidine [Example 34] |  |  |  | 6700 | 
17 | CCCNc1nc(N)nc2ncc(-c3ccc(OC)c(OC)c3)cc12 [Example 30, 2-amino-4-n-propylamino-6-(3,4-dimethoxyphenyl)pyrido[2,3-d]pyrimidine] | 5200 | 4000 |  |  | 
18 | COc1ccc(-c2cnc3nc(N)nc(Nc4cccc(Br)c4)c3c2)cc1OC [Example 42, 2-amino-4-(3-bromo-anilino)-6-(3,4-dimethoxyphenyl)pyrido[2,3-d]pyrimidine] | 3300 | 3300 |  |  | IC50 ([3]; Homo sapiens): 7000 nM
19 | CC(C)Oc1nc(N)nc2ncc(-c3cccs3)cc12 [Example 21, 2-amino-4-isopropoxy-6-(2-thienyl)pyrido[2,3-d]pyrimidine] |  | 800 |  |  | 
20 | CCC(C)Oc1nc(N)nc2ncc(-c3ccc(OC)c(OC)c3)cc12 (centres unmarked) [Example 36, 2-amino-4-(sec-butoxy)-6-(3,4-dimethoxyphenyl)-pyrido[2,3d]pyrimidine] |  |  | 2600 | 600 | 
21 | COc1ccc(-c2cnc3nc(N)nc(N4CCCCC4)c3c2)cc1OC [Example 32, 2-amino-4-(1-piperidino)-6-(3,4-dimethoxyphenyl)pyrido[2,3-d]pyrimidine] |  |  | 1900 | 900 | 
